Columns and labels:
Type in all cases: in vivo
[1] = test system: soybean (Glycine max var. Winchester); assay: Preemergence herbicidal activity, soybean; conditions: Rate of Application 0.3 Kg/Ha, examined after 12-17 days
[2] = test system: wheat (Triticum aestivum var. Lew); assay: Preemergence herbicidal activity, wheat; conditions: Rate of Application 0.3 Kg/Ha, examined after 12-17 days
[3] = test system: field corn (Zea mays var. Pioneer 3732); assay: Preemergence herbicidal activity, corn; conditions: Rate of Application 0.3 Kg/Ha, examined after 12-17 days
[4] = test system: velvetleaf (Abutilon theophrasti); assay: Preemergence herbicidal activity, velvetleaf; conditions: Rate of Application 0.3 Kg/Ha, examined after 12-17 days
[5] = test system: morningglory (Ipomea lacunosa or Ipomea hederacea); assay: Preemergence herbicidal activity, morningglory; conditions: Rate of Application 0.3 Kg/Ha, examined after 12-17 days
[6] = test system: common chickweed (Stellaria media); assay: Preemergence herbicidal activity, chickweed; conditions: Rate of Application 0.3 Kg/Ha, examined after 12-17 days
[7] = test system: common cocklebur (Xanthium strumarium L.); assay: Preemergence herbicidal activity, cocklebur; conditions: Rate of Application 0.3 Kg/Ha, examined after 12-17 days
[8] = test system: blackgrass (Aloepecurus myosuroides); assay: Preemergence herbicidal activity, blackgrass; conditions: Rate of Application 0.3 Kg/Ha, examined after 12-17 days
[9] = test system: green foxtail (Setaria viridis); assay: Preemergence herbicidal activity, green foxtail; conditions: Rate of Application 0.3 Kg/Ha, examined after 12-17 days
[10] = test system: Johnsongrass (Sorghum halepense); assay: Preemergence herbicidal activity, johnsongrass; conditions: Rate of Application 0.3 Kg/Ha, examined after 12-17 days
[11] = test system: soybean (Glycine max var. Winchester); assay: Postemergence herbicidal activity, soybean; conditions: rate of application 0.3 Kg/Ha, rated after 12-17 days
[12] = test system: wheat (Triticum aestivum var. Lew); assay: Postemergence herbicidal activity, wheat; conditions: rate of application 0.3 Kg/Ha, rated after 12-17 days
[13] = test system: field corn (Zea mays var. Pioneer 3732); assay: Postemergence herbicidal activity, corn; conditions: rate of application 0.3 Kg/Ha, rated after 12-17 days
[14] = test system: velvetleaf (Abutilon theophrasti); assay: Postemergence herbicidal activity, velvetleaf; conditions: rate of application 0.3 Kg/Ha, rated after 12-17 days
[15] = test system: morningglory (Ipomea lacunosa or Ipomea hederacea); assay: Postemergence herbicidal activity, morningglory; conditions: rate of application 0.3 Kg/Ha, rated after 12-17 days
[16] = test system: common cocklebur (Xanthium strumarium L.); assay: Postemergence herbicidal activity, cocklebur; conditions: rate of application 0.3 Kg/Ha, rated after 12-17 days
[17] = test system: blackgrass (Aloepecurus myosuroides); assay: Postemergence herbicidal activity, blackgrass; conditions: rate of application 0.3 Kg/Ha, rated after 12-17 days
Experimental: The benzofused heterocyclic compounds of this invention were tested for pre- and postemergence herbicidal activity using a variety of crops and weeds. The test plants included soybean (Glycine max var. Winchester), field corn (Zea mays var. Pioneer 3732), wheat (Triticum aestivum var. Lew), morningglory (Ipomea lacunosa or Ipomea hederacea), velvetleaf (Abutilon theophrasti), green foxtail (Setaria viridis), Johnsongrass (Sorghum halepense), blackgrass (Aloepecurus myosuroides), common chickweed (Stellaria media), and common cocklebur (Xanthium strumarium L.).
For preemergence testing, two disposable fiber flats (8 cm×15 cm×25 cm) for each rate of application of each candidate herbicide were filled to an approximate depth of 6.5 cm with steam-sterilized sandy loam soil. The soil was leveled and impressed with a template to provide five evenly spaced furrows 13 cm long and 0.5 cm deep in each flat. Seeds of soybean, wheat, corn, green foxtail, and johnsongrass were planted in the furrows of the first flat, and seeds of velvetleaf, morningglory, common chickweed, cocklebur, and blackgrass were planted in the furrows of the second flat. The five-row template was employed to firmly press the seeds into place. A topping soil of equal portions of sand and sandy loam soil was placed uniformly on top of each flat to a depth of approximately 0.5 cm. Flats for postemergence testing were prepared in the same manner except that they were planted 9-14 days prior to the preemergence flats and were placed in a greenhouse and watered, thus allowing the seeds to germinate and the foliage to develop.
In both pre- and postemergence tests, a stock solution of the candidate herbicide was prepared by dissolving 0.27 g of the compound in 20 mL of water/acetone (50/50) containing 0.5% v/v sorbitan monolaurate. For an application rate of 3000 g/ha of herbicide a 10 mL portion of the stock solution was diluted with water/acetone (50/50) to 45 mL.
The preemergence flats were initially subjected to a light water spray. The four flats were placed two by two along a conveyor belt (i.e., the two preemergence followed by the two postemergence flats). The conveyor belt fed under a spray nozzle mounted about ten inches above the post-emergent foliage. The preemergent flats were elevated on the belt so that the soil surface was at the same level below the spray nozzle as the foliage canopy of the postemergent plants. The spray of herbicidal solution was commenced and once stabilized, the flats were passed under the spray at a speed to receive a coverage equivalent of 100 L/ha. At this coverage the application rates are those shown in the above table for the individual herbicidal solutions. The preemergence flats were watered immediately thereafter, placed in the greenhouse and watered regularly at the soil surface. The postemergence flats were immediately placed in the green-house and not watered until 24 hours after treatment with the test solution. Thereafter they were regularly watered at ground level. After 12-17 days the plants were examined and the phytotoxicity data were recorded.
Phytotoxicity data were taken as percent control. Percent control was determined by a method similar to the 0 to 100 rating system disclosed in “Research Methods in Weed Science,” 2nd ed., B. Truelove, Ed.; Southern Weed Science Society; Auburn University, Auburn, Ala., 1977.

[18] = test system: green foxtail (Setaria viridis); assay: Postemergence herbicidal activity, green foxtail; conditions: rate of application 0.3 Kg/Ha, rated after 12-17 days
[19] = test system: Johnsongrass (Sorghum halepense); assay: Postemergence herbicidal activity, johnsongrass; conditions: rate of application 0.3 Kg/Ha, rated after 12-17 days

Row | SMILES | PREEMERGENCE HERBICIDAL ACTIVITY (% CONTROL) SOY [1] [%] | PREEMERGENCE HERBICIDAL ACTIVITY (% CONTROL) WHT [2] [%] | PREEMERGENCE HERBICIDAL ACTIVITY (% CONTROL) CRN [3] [%] | PREEMERGENCE HERBICIDAL ACTIVITY (% CONTROL) ABUTH [4] [%] | PREEMERGENCE HERBICIDAL ACTIVITY (% CONTROL) IPOSS [5] [%] | PREEMERGENCE HERBICIDAL ACTIVITY (% CONTROL) STEME [6] [%] | PREEMERGENCE HERBICIDAL ACTIVITY (% CONTROL) XANPE [7] [%] | PREEMERGENCE HERBICIDAL ACTIVITY (% CONTROL) ALOMY [8] [%] | PREEMERGENCE HERBICIDAL ACTIVITY (% CONTROL) SETVI [9] [%] | PREEMERGENCE HERBICIDAL ACTIVITY (% CONTROL) SORHA [10] [%] | Postemergence herbicidal activity (% control) SOY [11] [%] | Postemergence herbicidal activity (% control) WHT [12] [%] | Postemergence herbicidal activity (% control) CRN [13] [%] | Postemergence herbicidal activity (% control) ABUTH [14] [%] | Postemergence herbicidal activity (% control) IPOSS [15] [%] | Postemergence herbicidal activity (% control) XANPE [16] [%] | Postemergence herbicidal activity (% control) ALOMY [17] [%] | Postemergence herbicidal activity (% control) SETVI [18] [%] | Postemergence herbicidal activity (% control) SORHA [19] [%]
1 | Cn1c(C(F)(F)F)cc(=O)n(-c2ccc(Cl)c3cc(CO)oc23)c1=O [Compound 238] | 100 | 60 | 70 | 100 | 100 | 60 | 80 | 50 | 90 | 90 | 80 | 30 | 70 | 100 | 100 | 100 | 40 | 80 | 70
2 | Cn1c(C(F)(F)F)cc(=O)n(-c2c(F)cc(Cl)c3oc(NS(C)(=O)=O)nc23)c1=O [Compound 42] | 0 | 10 | 0 | 100 | 60 | 30 | 20 | 50 | 30 | 0 | 65 | 30 | 60 | 90 | 60 | 50 | 40 | 100 | 20
3 | Cc1nc2c(-n3c(=O)cc(C(F)(F)F)n(C)c3=O)c(F)cc(Cl)c2[nH]1 [Compound 363] | 100 | 100 | 100 | 100 | 100 | 100 | 100 | 100 | 100 | 100 | 100 | 100 | 100 | 100 | 100 | 100 | 100 | 100 | 100
4 | Cn1c(C(F)(F)F)cc(=O)n(-c2c(F)cc(Cl)c3nc(COc4ccccc4)[nH]c23)c1=O [Compound 378] | 90 | 70 | 90 | 100 | 100 | 100 | 100 | 80 | 100 | 95 | 90 | 40 | 90 | 100 | 90 | 100 | 80 | 100 | 100

— patent publication US6352958B1, “Cycloimido-substituted benzofused heterocyclic herbicides” (FMC Corporation, priority 1997, dated 2002)
